Measurements as given in patent US20240058422A1, “GLUCAGON-LIKE PEPTIDE-1 RECEPTOR ANTAGONISTS” (INDIANA UNIVERSITY RESEARCH AND TECHNOLOGY CORPORATION, priority 2022, published 2024).
Converted amounts (≈) assume the structure as drawn. Where two headings read alike, the source gives them in different places. Starred links: 1 amine or outer side, 2 acyl side, 3 side chain; linkers in the order of their positions; H or OH if unused. Non-standard residues stand in square brackets, D forms with d. Residues, ends and D or L forms follow the SMILES beside them. Groups on a side chain read outwards from the residue. *: point of attachment. C18 diacid = O=C(O)CCCCCCCCCCCCCCCCC(=O)*; γGlu = O=C(O)[C@H](CCC(=O)[*:2])N[*:1]; Palmitoyl = CCCCCCCCCCCCCCCC(=O)*; AEEA = NCCOCCOCC(=O)O; Aib = CC(C)(N)C(=O)O

Columns and labels:
GLP-1R = GLP-1R (Homo sapiens, UniProt P43220); test: GLP-1 receptor-mediated cAMP induction, luciferase reporter gene antagonism assay; format: cell-based; set-up: host or cells: HEK 293; conditions: antagonism of 0.05 nM GLP-1, HEK 293 cells
GLP-1R, sequence (P43220 24-463): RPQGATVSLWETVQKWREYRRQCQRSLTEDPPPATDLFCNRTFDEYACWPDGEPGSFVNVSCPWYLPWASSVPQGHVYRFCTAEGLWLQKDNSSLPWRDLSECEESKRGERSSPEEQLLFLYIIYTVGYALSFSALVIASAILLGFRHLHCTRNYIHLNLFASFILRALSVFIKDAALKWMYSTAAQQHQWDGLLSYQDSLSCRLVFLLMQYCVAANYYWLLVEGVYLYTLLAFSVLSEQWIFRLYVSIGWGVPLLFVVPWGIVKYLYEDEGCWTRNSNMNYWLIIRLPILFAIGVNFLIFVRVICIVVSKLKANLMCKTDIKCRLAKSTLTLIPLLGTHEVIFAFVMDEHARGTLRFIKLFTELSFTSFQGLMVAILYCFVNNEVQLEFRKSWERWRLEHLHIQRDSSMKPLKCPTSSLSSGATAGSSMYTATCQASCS
Procedure: GLP-1 Receptor-Mediated cAMP Induction The ability of peptides to stimulate or block cAMP induction at the GLP-1 receptor was examined by a luciferase-based reporter gene assay. Cotransfection of HEK 293 cells with the human GLP-1 receptor (Open Biosystems) and a cAMPinducible (cAMPresponsive element) luciferase gene constituted the cellular construct where receptor activation could be measured. Bioassays were performed by first serum depriving the cells for 16 h in 0.25% bovine growth serum (HyClone)-supplemented Dulbecco's modified Eagle's medium (Invitrogen) and then adding serial dilutions of the peptides over the appropriate concentration ranges in 96-well poly-D-lysine-coated plates (BD Biosciences). For antagonism assays, a constant concentration of GLP-1 (0.05 nM) was added to the assay plate after the diluted peptides. Incubation continued for 5 h at 37° C., 5% CO2 and was followed by the addition of an equivalent volume (100 μL) of LucLite luminescence substrate reagent (Perkin-Elmer). MicroBeta 1450 liquid scintillation counting (Perkin-Elmer) quantified the luminescence signal in counts per second (cps) after shaking the plate at 600 rpm for 3 min. Data was plotted using Origin software (OriginLab) and the effective concentration 50 (EC50) or inhibitory concentration 50 (IC50) was determined by sigmoidal fitting. Potency was determined by comparative analysis of relative EC50 or IC50 values. Each experiment was repeated at least three times with each sample assayed in duplicate.

[1] = 80 mM ammonium bicarbonate buffer, pH 7.7
[2] = Table 5, d-AA variants of 9-40am Jant4 K40[C16], read-out: Bioactivity KC50
[3] = 80 mM ammonium bicarbonate buffer, pH 7.7, Solubility [mg/mL] 80 mM AmBicarb pH7.7, Table 2, 80 mM AmBicarb pH7.7

Row | Structure (SMILES) | solubility (Solubility in buffer; [1]) [mg/mL] | solubility (Solubility in buffer; [3]) [mg/mL] | also measured
1 | CCCCCCCCCCCCCCCC(=O)NCCCC[C@H](NC(=O)[C@H](CO)NC(=O)[C@@H]1CCCN1C(=O)[C@@H]1CCCN1C(=O)[C@@H]1CCCN1C(=O)[C@H](C)NC(=O)CNC(=O)[C@H](CO)NC(=O)[C@H](CO)NC(=O)[C@@H]1CCCN1C(=O)CNC(=O)CNC(=O)[C@H](CCCCN)NC(=O)[C@@H](NC(=O)[C@H](CC(C)C)NC(=O)[C@H](Cc1c[nH]c2ccccc12)NC(=O)[C@H](C)NC(=O)[C@@H](NC(=O)[C@H](Cc1ccccc1)NC(=O)[C@H](CCC(=O)O)NC(=O)[C@H](CCCNC(=N)N)NC(=O)[C@@H](NC(=O)[C@H](C)NC(=O)[C@@H](CCC(N)=O)NC(=O)[C@H](CCC(=O)O)NC(=O)[C@H](CCC(=O)O)NC(=O)[C@H](CC(C)C)NC(=O)[C@H](Cc1ccc(O)cc1)NC(=O)[C@H](CO)NC(=O)[C@H](CO)NC(=O)[C@@H](NC(=O)[C@@H](N)CC(=O)O)C(C)C)C(C)C)[C@@H](C)CC)C(C)C)C(N)=O [compound 86] (H-DVSSYLEE[dQ]AVREFIAWLVKGGPSSGAPPPSK(Palmitoyl)-NH2) | 2.2 (≈ 0.604 mM) |  | IC50 (GLP-1R; [2]): 41 nM
2 | CC[C@H](C)[C@H](NC(=O)[C@H](Cc1ccccc1)NC(=O)[C@H](CCC(=O)O)NC(=O)[C@H](CCCNC(=N)N)NC(=O)[C@@H](NC(=O)[C@H](C)NC(=O)[C@H](CCC(N)=O)NC(=O)[C@H](CCC(=O)O)NC(=O)[C@H](CCC(=O)O)NC(=O)[C@H](CC(C)C)NC(=O)[C@H](Cc1ccc(O)cc1)NC(=O)[C@H](CO)NC(=O)[C@H](CO)NC(=O)[C@@H](NC(=O)[C@@H](N)CC(=O)O)C(C)C)C(C)C)C(=O)N[C@@H](C)C(=O)N[C@@H](Cc1c[nH]c2ccccc12)C(=O)N[C@@H](CC(C)C)C(=O)N[C@H](C(=O)N[C@@H](CCCCN)C(=O)NCC(=O)NCC(=O)N1CCC[C@H]1C(=O)N[C@@H](CO)C(=O)N[C@@H](CO)C(=O)NCC(=O)N[C@@H](C)C(=O)N1CCC[C@H]1C(=O)N1CCC[C@H]1C(=O)N1CCC[C@H]1C(=O)N[C@@H](CO)C(=O)N[C@@H](CCCCNC(=O)CCCCCCCCCCCCCCCCC(=O)O)C(N)=O)C(C)C [compound 63] (H-DVSSYLEEQAVREFIAWLVKGGPSSGAPPPSK(C18 diacid)-NH2; N-terminus assumed) |  | > 25 | IC50 (GLP-1R; Table 2, C16 linker variants of 9-40amide Jant4 K40[X], read-out: Biactivity IC50): 114 nM
3 | CCCCCCCCCCCCCCCC(=O)NCCCC[C@H](NC(=O)[C@H](CO)NC(=O)[C@@H]1CCCN1C(=O)[C@@H]1CCCN1C(=O)[C@@H]1CCCN1C(=O)[C@H](C)NC(=O)CNC(=O)[C@H](CO)NC(=O)[C@H](CO)NC(=O)[C@@H]1CCCN1C(=O)CNC(=O)CNC(=O)[C@H](CCCNC(=N)N)NC(=O)[C@@H](NC(=O)[C@H](CC(C)C)NC(=O)[C@H](Cc1c[nH]c2ccccc12)NC(=O)[C@H](C)NC(=O)[C@@H](NC(=O)[C@H](Cc1ccccc1)NC(=O)[C@H](CCC(=O)O)NC(=O)[C@H](CCCNC(=N)N)NC(=O)[C@@H](NC(=O)[C@H](C)NC(=O)[C@H](CCC(=O)O)NC(=O)[C@H](CCC(=O)O)NC(=O)[C@H](CCC(=O)O)NC(=O)[C@H](CC(C)C)NC(=O)[C@H](Cc1ccc(O)cc1)NC(=O)[C@H](CO)NC(=O)[C@H](CO)NC(=O)[C@@H](NC(=O)[C@@H](N)CC(=O)O)C(C)C)C(C)C)[C@@H](C)CC)C(C)C)C(N)=O [compound 71] (H-DVSSYLEEEAVREFIAWLVRGGPSSGAPPPSK(Palmitoyl)-NH2; N-terminus assumed) | > 20 |  | IC50 (GLP-1R; Table 3, amino acid substitution variants of Jant4-K40, read-out: Bioactivity IC50): 18 nM
4 | CCCCCCCCCCCCCCCC(=O)NCCCC[C@H](NC(=O)[C@H](CO)NC(=O)[C@@H]1CCCN1C(=O)[C@@H]1CCCN1C(=O)[C@@H]1CCCN1C(=O)[C@H](C)NC(=O)CNC(=O)[C@H](CO)NC(=O)[C@H](CO)NC(=O)[C@@H]1CCCN1C(=O)CNC(=O)CNC(=O)[C@H](CCCCN)NC(=O)[C@@H](NC(=O)[C@H](CC(C)C)NC(=O)[C@H](Cc1c[nH]c2ccccc12)NC(=O)[C@H](C)NC(=O)[C@@H](NC(=O)[C@H](Cc1ccccc1)NC(=O)[C@H](CCC(=O)O)NC(=O)[C@H](CCCNC(=N)N)NC(=O)[C@@H](NC(=O)[C@H](C)NC(=O)[C@H](CCC(N)=O)NC(=O)[C@@H](CCC(=O)O)NC(=O)[C@H](CCC(=O)O)NC(=O)[C@H](CC(C)C)NC(=O)[C@H](Cc1ccc(O)cc1)NC(=O)[C@H](CO)NC(=O)[C@H](CO)NC(=O)[C@@H](NC(=O)[C@@H](N)CC(=O)O)C(C)C)C(C)C)[C@@H](C)CC)C(C)C)C(N)=O [compound 85] (H-DVSSYLE[dE]QAVREFIAWLVKGGPSSGAPPPSK(Palmitoyl)-NH2; N-terminus assumed) | 10.7 (≈ 2.94 mM) |  | IC50 (GLP-1R; [2]): 41 nM
5 | CCCCCCCCCCCCCCCC(=O)N[C@@H](CCC(=O)NCCOCCOCC(=O)NCCCC[C@H](NC(=O)[C@H](CO)NC(=O)[C@@H]1CCCN1C(=O)[C@@H]1CCCN1C(=O)[C@@H]1CCCN1C(=O)[C@H](C)NC(=O)CNC(=O)[C@H](CO)NC(=O)[C@H](CO)NC(=O)[C@@H]1CCCN1C(=O)CNC(=O)CNC(=O)[C@H](CCCCN)NC(=O)[C@@H](NC(=O)[C@H](CC(C)C)NC(=O)[C@H](Cc1c[nH]c2ccccc12)NC(=O)[C@H](C)NC(=O)[C@@H](NC(=O)[C@H](Cc1ccccc1)NC(=O)[C@H](CCC(=O)O)NC(=O)[C@H](CCCNC(=N)N)NC(=O)[C@@H](NC(=O)[C@H](C)NC(=O)[C@H](CCC(N)=O)NC(=O)[C@H](CCC(=O)O)NC(=O)[C@H](CCC(=O)O)NC(=O)[C@H](CC(C)C)NC(=O)[C@H](Cc1ccc(O)cc1)NC(=O)[C@H](CO)NC(=O)[C@H](CO)NC(=O)[C@@H](NC(=O)[C@@H](N)CC(=O)O)C(C)C)C(C)C)[C@@H](C)CC)C(C)C)C(N)=O)C(=O)O [compound 56] (H-DVSSYLEEQAVREFIAWLVKGGPSSGAPPPSK([AEEA-γGlu-Palmitoyl])-NH2; N-terminus assumed) |  | > 20 | 
6 | CCCCCCCCCCCCCCCC(=O)NCCCC[C@H](NC(=O)[C@H](CO)NC(=O)[C@@H]1CCCN1C(=O)[C@@H]1CCCN1C(=O)[C@@H]1CCCN1C(=O)[C@H](C)NC(=O)CNC(=O)[C@H](CO)NC(=O)[C@H](CO)NC(=O)[C@@H]1CCCN1C(=O)CNC(=O)CNC(=O)[C@H](CCCCN)NC(=O)[C@@H](NC(=O)[C@H](CC(C)C)NC(=O)[C@H](Cc1c[nH]c2ccccc12)NC(=O)C(C)(C)NC(=O)[C@@H](NC(=O)[C@H](Cc1ccccc1)NC(=O)[C@H](CCC(=O)O)NC(=O)[C@H](CCCNC(=N)N)NC(=O)[C@@H](NC(=O)[C@H](C)NC(=O)[C@H](CCC(N)=O)NC(=O)[C@H](CCC(=O)O)NC(=O)[C@H](CCC(=O)O)NC(=O)[C@H](CC(C)C)NC(=O)[C@H](Cc1ccc(O)cc1)NC(=O)[C@H](CO)NC(=O)[C@H](CO)NC(=O)[C@@H](NC(=O)[C@@H](N)CC(=O)O)C(C)C)C(C)C)[C@@H](C)CC)C(C)C)C(N)=O [compound 83] (H-DVSSYLEEQAVREFI[Aib]WLVKGGPSSGAPPPSK(Palmitoyl)-NH2) | 12.6 (≈ 3.45 mM) |  | solubility (Solubility in buffer; PBS, pH 7.7): 0.3 mg/mL (≈ 0.0821 mM)
7 | CCCCCCCCCCCCCCCC(=O)N[C@@H](CCC(=O)N[C@@H](CCC(=O)NCCOCCOCC(=O)NCCOCCOCC(=O)NCCCC[C@H](NC(=O)[C@H](CO)NC(=O)[C@@H]1CCCN1C(=O)[C@@H]1CCCN1C(=O)[C@@H]1CCCN1C(=O)[C@H](C)NC(=O)CNC(=O)[C@H](CO)NC(=O)[C@H](CO)NC(=O)[C@@H]1CCCN1C(=O)CNC(=O)CNC(=O)[C@H](CCCCN)NC(=O)[C@@H](NC(=O)[C@H](CC(C)C)NC(=O)[C@H](Cc1c[nH]c2ccccc12)NC(=O)[C@H](C)NC(=O)[C@@H](NC(=O)[C@H](Cc1ccccc1)NC(=O)[C@H](CCC(=O)O)NC(=O)[C@H](CCCNC(=N)N)NC(=O)[C@@H](NC(=O)[C@H](C)NC(=O)[C@H](CCC(N)=O)NC(=O)[C@H](CCC(=O)O)NC(=O)[C@H](CCC(=O)O)NC(=O)[C@H](CC(C)C)NC(=O)[C@H](Cc1ccc(O)cc1)NC(=O)[C@H](CO)NC(=O)[C@H](CO)NC(=O)[C@@H](NC(=O)[C@@H](N)CC(=O)O)C(C)C)C(C)C)[C@@H](C)CC)C(C)C)C(N)=O)C(=O)O)C(=O)O [compound 58] (H-DVSSYLEEQAVREFIAWLVKGGPSSGAPPPSK([AEEA-AEEA-γGlu-γGlu-Palmitoyl])-NH2; N-terminus assumed) |  | > 25 | 
